Test results as given in patent US12564638B2 (SHANGHAITECH UNIVERSITY, priority 2019, dated 2026).
Read-outs that look alike come from different tables or passages of the source. One block for each compound: values may come before it.

Experiments:
Format in all cases: cell-based
[1] = tested on: HCC827 cells (EGFR Exon19 del, non-small cell lung cancer cells); test: Cell viability assay (WST/CCK8), HCC827 cells; conditions: Homo sapiens, HCC827, 72 h, HCC827 (Exon19 Del), 72 hours, read-out: IC50 (half inhibitory concentration)
Procedure, shortened: (§1)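 Cells seeded at 3 000/well in RPMI1640 complete medium, dosed next day with compounds (top 10 μM, 3-fold, 10 points) for 72 h. Viability read with WST (CCK8) reagent; DMSO as negative control, EGFR TKIs as positive controls; IC50 determined.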

[2] = tested on: PC9 DCT (Del19+T790M+C797S) cells; test: Cell viability assay, PC9 cells with EGFR triple mutation; conditions: Homo sapiens, PC-9; Table 9; PC9 (Del + T790M + C797S), EGFR triple mutations; read-out: IC50 (half inhibitory concentration)
Text: Construction of EGFR triple mutant cell line PC9 DCT (Dell9+T790M+C797S): The cDNA expressing human EGFR was cloned into pLVX vector, and exon 19 deletion mutation (746-750) and T790M mutation were introduced by point mutation and C797S mutation. Transferred into PC9 cells by lentiviral packaging. Cells stably expressing EGFR triple mutations were obtained by fluorescence screening.
The cDNA sequence expressing human EGFR was cloned into a pLVX vector (GFP^+), and then introduce the EGFR exon 19 deletion (746-750), exon 20 T790M and C797S mutations by were generated by site-directed mutagenesis. The PC9 cells were infected with lentivirus containing the indicated EGFR mutations, and the cells stably expressing EGFR triple mutation were obtained by fluorescence screening.
All of the half inhibitory concentrations (IC50) of these compounds of the present invention were determined with WST reagent from Fuyuan Biotec Company. The specific experiment procedures are as follows: Cancer cells were planted in 96-well-plate at the density of 3 000 cells per well with 100 μL RPMI1640 completed culture medium. In the next day, compounds with indicated concentrations were added to the cells, DMSO was used as the negative control and the EGFR TKIs were used to treat cells as the positive groups. After 72 hours drug treatment, cell viability was measured by using the WST reagent following the instructions. The growth inhibition curve of the compounds on cells were plotted by Prism GraphPad, and the compounds IC50 calculated from it.
The cell viability assays were taken to determine the anti-tumor activity of these indicated compounds in PC9 cells, which overexpressed Exon 19del+T790M+C797S triple mutant EGFR.

[3] = tested on: PC9 cells (EGFR Exon 19 del, non-small cell lung cancer cells); test: Cell viability assay (WST/CCK8), PC9 cells; conditions: Homo sapiens, PC-9, PC9 (Exon19 Del), 72 hours, read-out: IC50 (half inhibitory concentration)
Procedure, shortened: as §1

[4] = tested on: H1975 (EGFR T790M+L858R mutation, non-small cell lung cancer cell line); test: Cell viability assay (WST/CCK8), H1975 cells; conditions: Homo sapiens, NCI-H1975, H1975 (L858R + T790M), read-out: IC50 (half inhibitory concentration)
Procedure, shortened: (§2)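 Cells seeded at 3 000 per well in RPMI1640 complete medium, dosed next day with compounds at indicated concentrations (DMSO negative control, EGFR TKIs as positive control).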

[5] = tested on: PC9BracA1 (EGFR Exon 19 del+T790M, non-small cell lung cancer cells); test: Cell viability assay (WST/CCK8), PC9Brac1 cells; conditions: read-out: IC50 (half inhibitory concentration)
Procedure, shortened: as §2

[6] = tested on: BT474 cells (HER2 positive breast cancer cells); test: Cell viability assay (CCK8), BT474 cells; conditions: Homo sapiens, BT-474, Table 10, BT474, 72 hours, read-out: IC50 (half inhibitory concentration)
Procedure, shortened: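 HER2-overexpressing BT474 cells in RPMI1640 were exposed to compounds for 72 hours over 10 concentrations (3-fold dilution, top 10 μM). Viability was measured with CCK8 reagent against a DMSO control, and IC50 was taken from growth inhibition curves.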

[7] = Table 3, poziotinib-based compounds, WST (CCK8)
[8] = Table 6, canertinib-based compounds, WST
[9] = Table 7, canertinib-based compounds
[10] = Table 7, canertinib-based compounds, PC9Brca1 (Ex19del + T790M)
[11] = PC9Brac1 (Ex19del + T790M), 72 hours, WST

SMILES: COc1cc2ncnc(Nc3ccc(Cl)c(Cl)c3F)c2cc1OC1CCN(C(=O)CCCSc2cccc3c2CN(C2CCC(=O)NC2=O)C3=O)CC1 (stereo not shown) [SIAIS219166, 3-(4-((4-(4-((4-((3,4-dichloro-2-fluorophenyl)amino)-7-methoxyquinazolin-6-yl)oxy)piperidin-1-yl)-4-oxobutyl)thio)-1-oxoisoindolin-2-yl)piperidine-2,6-dione]
IC50 [1, 7]: 30 nM | IC50 [2]: 4.6 nM

SMILES: COc1cc2ncnc(Nc3ccc(Cl)c(Cl)c3F)c2cc1OC1CCN(C(=O)CCCSc2cccc3c2C(=O)N(C2CCC(=O)NC2=O)C3=O)CC1 (stereo not shown) [SIAIS249016, 4-((4-(4-((4-((3,4-dichloro-2-fluorophenyl)amino)-7-methoxyquinazolin-6-yl)oxy)piperidin-1-yl)-4-oxobutyl)thio)-2-(2,6-dioxopiperidin-3-yl)isoindoline-1,3-dione]
IC50 [1, 7]: 29 nM | IC50 [2]: 1.5 nM

SMILES: COc1cc2ncnc(Nc3ccc(Cl)c(Cl)c3F)c2cc1OC1CCN(C(=O)CCCCSc2cccc3c2C(=O)N(C2CCC(=O)NC2=O)C3=O)CC1 (stereo not shown) [SIAIS249017, 4-((5-(4-((4-((3,4-dichloro-2-fluorophenyl)amino)-7-methoxyquinazolin-6-yl)oxy)piperidin-1-yl)-5-oxopentyl)thio)-2-(2,6-dioxopiperidin-3-yl)isoindoline-1,3-dione]
IC50 [1, 7]: 23 nM | IC50 [2]: 2.2 nM

SMILES: COc1cc2ncnc(Nc3ccc(Cl)c(Cl)c3F)c2cc1OC1CCN(C(=O)CCCCCCSc2cccc3c2CN(C2CCC(=O)NC2=O)C3=O)CC1 (stereo not shown) [SIAIS219169, 3-(4-((7-(4-((4-((3,4-dichloro-2-fluorophenyl)amino)-7-methoxyquinazolin-6-yl)oxy)piperidin-1-yl)-7-oxoheptyl)thio)-1-oxoisoindolin-2-yl)piperidine-2,6-dione]
IC50 [1, 7]: 38 nM | IC50 [2]: 3.6 nM

SMILES: C=CC(=O)Nc1cc2c(Nc3ccc(F)c(Cl)c3)ncnc2cc1OCCCN1CCC(N2CCN(C(=O)CSc3cccc4c3CN(C3CCC(=O)NC3=O)C4=O)CC2)CC1 (stereo not shown) [SIAIS262174, N-(4-((3-chloro-4-fluorophenyl)amino)-7-(3-(4-(4-(2-((2-(2,6-dioxopiperidin-3-yl)-1-oxoisoindolin-4-yl)thio)acetyl)piperazin-1-yl)piperidin-1-yl)propoxy)quinazolin-6-yl)acrylamide]
IC50 [1, 8]: 11 nM | IC50 [3, 8]: 16.7 nM | IC50 [4, 9]: 287 nM | IC50 [5, 10]: 267 nM | IC50 [6]: 28.2 nM

SMILES: C=CC(=O)Nc1cc2c(Nc3ccc(F)c(Cl)c3)ncnc2cc1OCCCN1CCN(C(=O)CCCCSc2cccc3c2CN(C2CCC(=O)NC2=O)C3=O)CC1 (stereo not shown) [SIAIS262122, N-(4-((3-chloro-4-fluorophenyl)amino)-7-(3-(4-(5-((2-(2,6-dioxopiperidin-3-yl)-1-oxoisoindolin-4-yl)thio)pentanoyl)piperazin-1-yl)propoxy)quinazolin-6-yl)acrylamide]
IC50 [1, 8]: 4.1 nM | IC50 [3, 8]: 23.1 nM | IC50 [4, 9]: 97 nM | IC50 [5, 10]: 474 nM | IC50 [6]: 48 nM

SMILES: COc1cc2ncnc(Nc3ccc(F)c(Cl)c3)c2cc1NC(=O)/C=C/CN1CCC(NC(=O)CCCCCCSc2cccc3c2CN(C2CCC(=O)NC2=O)C3=O)CC1 (stereo not shown) [SIAIS262115, (E)-N-(1-(4-((4-((3-chloro-4-fluorophenyl)amino)-7-methoxyquinazolin-6-yl)amino)-4-oxobut-2-en-1-yl)piperidin-4-yl)-7-((2-(2,6-dioxopiperidin-3-yl)-1-oxoisoindolin-4-yl)thio)heptanamide]
IC50 ([1]; WST (CCK8)): 4 nM | IC50 ([3]; WST (CCK8)): 7.2 nM | IC50 ([4]; 72 hours, WST): 550 nM | IC50 [5, 11]: 488 nM | IC50 [6]: 33.7 nM

SMILES: C=CC(=O)Nc1cc2c(Nc3ccc(F)c(Cl)c3)ncnc2cc1OCCCN1CCN(C(=O)CCCCCCNc2cccc3c2C(=O)N(C2CCC(=O)NC2=O)C3=O)CC1 (stereo not shown) [SIAIS262126, N-(4-((3-chloro-4-fluorophenyl)amino)-7-(3-(4-(7-((2-(2,6-dioxopiperidin-3-yl)-1,3-dioxoisoindolin-4-yl)amino)heptanoyl)piperazin-1-yl)propoxy)quinazolin-6-yl)acrylamide]
IC50 [1, 8]: 2.5 nM | IC50 [3, 8]: 2.3 nM | IC50 [4, 9]: 20 nM | IC50 [5, 10]: 85 nM | IC50 [6]: 17.6 nM

SMILES: C=CC(=O)Nc1cc2c(Nc3ccc(F)c(Cl)c3)ncnc2cc1OCCCN1CCN(C(=O)CNc2cccc3c2C(=O)N(C2CCC(=O)NC2=O)C3=O)CC1 (stereo not shown) [SIAIS262124, N-(4-((3-chloro-4-fluorophenyl)amino)-7-(3-(4-(2-((2-(2,6-dioxopiperidin-3-yl)-1,3-dioxoisoindolin-4-yl)amino)acetyl)piperazin-1-yl)propoxy)quinazolin-6-yl)acrylamide]
IC50 [1, 8]: 10.3 nM | IC50 [3, 8]: 2.6 nM | IC50 [4, 9]: 413 nM | IC50 [5, 10]: 419 nM | IC50 [6]: 16.4 nM

Further lines, results first:

IC50 [1, 7]: 23.1 nM | IC50 [2]: 3.8 nM
SMILES: COc1cc2ncnc(Nc3ccc(Cl)c(Cl)c3F)c2cc1OC1CCN(C(=O)CCCCCNc2cccc3c2C(=O)N(C2CCC(=O)NC2=O)C3=O)CC1 (stereo not shown) [SIAIS219181, 4-((6-(4-((4-((3,4-dichloro-2-fluorophenyl)amino)-7-methoxyquinazolin-6-yl)oxy)piperidin-1-yl)-6-oxohexyl)amino)-2-(2,6-dioxopiperidin-3-yl)isoindoline-1,3-dione]

IC50 [1, 7]: 33 nM | IC50 [2]: 4.8 nM
SMILES: COc1cc2ncnc(Nc3ccc(Cl)c(Cl)c3F)c2cc1OC1CCN(C(=O)CSc2cccc3c2CN(C2CCC(=O)NC2=O)C3=O)CC1 (stereo not shown) [SIAIS219164, 3-(4-((2-(4-((4-((3,4-dichloro-2-fluorophenyl)amino)-7-methoxyquinazolin-6-yl)oxy)piperidin-1-yl)-2-oxoethyl)thio)-1-oxoisoindolin-2-yl)piperidine-2,6-dione]

IC50 [1, 7]: 31 nM | IC50 [2]: 4.1 nM
SMILES: COc1cc2ncnc(Nc3ccc(Cl)c(Cl)c3F)c2cc1OC1CCN(C(=O)CCCCSc2cccc3c2CN(C2CCC(=O)NC2=O)C3=O)CC1 (stereo not shown) [SIAIS219167, 3-(4-((5-(4-((4-((3,4-dichloro-2-fluorophenyl)amino)-7-methoxyquinazolin-6-yl)oxy)piperidin-1-yl)-5-oxopentyl)thio)-1-oxoisoindolin-2-yl)piperidine-2,6-dione]

IC50 [1, 7]: 40 nM | IC50 [2]: 2.9 nM
SMILES: COc1cc2ncnc(Nc3ccc(Cl)c(Cl)c3F)c2cc1OC1CCN(C(=O)CCCCCSc2cccc3c2CN(C2CCC(=O)NC2=O)C3=O)CC1 (stereo not shown) [SIAIS219168, 3-(4-((6-(4-((4-((3,4-dichloro-2-fluorophenyl)amino)-7-methoxyquinazolin-6-yl)oxy)piperidin-1-yl)-6-oxohexyl)thio)-1-oxoisoindolin-2-yl)piperidine-2,6-dione]

IC50 ([1]; WST (CCK8)): 3 nM | IC50 ([3]; WST (CCK8)): 7.9 nM | IC50 ([4]; 72 hours, WST): 952 nM | IC50 [5, 11]: 481 nM | IC50 [6]: 39.3 nM
SMILES: COc1cc2ncnc(Nc3ccc(F)c(Cl)c3)c2cc1NC(=O)/C=C/CN1CCC(NC(=O)CCCCCCNc2cccc3c2C(=O)N(C2CCC(=O)NC2=O)C3=O)CC1 (stereo not shown) [SIAIS249085, (E)-N-(1-(4-((4-((3-chloro-4-fluorophenyl)amino)-7-methoxyquinazolin-6-yl)amino)-4-oxobut-2-en-1-yl)piperidin-4-yl)-7-((2-(2,6-dioxopiperidin-3-yl)-1,3-dioxoisoindolin-4-yl)amino)heptanamide]
